# Laboratory results as given in paper PMC4579270, “Identification and Characterization of an Irreversible Inhibitor of CDK2” (Chemistry & Biology, 2015).
# Key:
# Assay type in all cases: biochemical
# [1] = molecular target: IKKb (Homo sapiens, UniProt O14920); assay: Dundee protein kinase screen; settings: read-out: %Remaining activity at 1µM NU6300
# Method: (§1) Prior to determining its cellular activity, we carried out a screen to assess its selectivity against a panel of 131 protein kinases under conditions that would not distinguish between a reversible or irreversible mode of action. […] These 13 kinases and 29 additional kinases, selected for their known sensitivity to other inhibitors within the purine series, were then tested in a modified screening format in which the assay was repeated following a 4-hr pre-incubation (Table S3B). […] However, conformational flexibility around the active site may promote such an interaction with a residue from another part of the structure ([Martin et al., 2012]).
# (§2) Table S3, Related to Figure 4. NCL-0006300 protein kinase selectivity. (A) NU6300 was tested at a single concentration of 1µM against 131 protein kinases present in a Dundee protein kinase screen (Bain et al., 2007). Values given are % activity remaining and are the average of duplicate measurements: 0-25% (red), 26-50% (yellow), 51-80% (black) and above 81% (green). The kinase domain sequences (as defined by UniProt) of […]
# (§3) have a lysine residue at a position close to CDK2 Lys88 or Lys89. However, in the structure of tyrosine-protein kinase BTK (PDB ID: 3GEN) the residue equivalent to CDK2 Asp86 is Cys481 and therefore there is the potential for a covalent adduct to be formed through this side chain. […]
# [2] = molecular target: CHK2 (Homo sapiens, UniProt O96017); assay: Dundee protein kinase screen; settings: CHK2, 1µM; read-out: %Remaining activity at 1µM NU6300
# Method: as §1, §2, §3
# [3] = molecular target: MELK (Homo sapiens, UniProt Q14680); assay: Dundee protein kinase screen; settings: read-out: %Remaining activity at 1µM NU6300
# Method: as §1, §2, §3
# [4] = molecular target: CSK (Homo sapiens, UniProt P41240); assay: Dundee protein kinase screen; settings: read-out: %Remaining activity at 1µM NU6300
# Method: as §1, §2, §3
# [5] = molecular target: CK1δ (Homo sapiens, UniProt P48730); assay: Dundee protein kinase screen; settings: read-out: %Remaining activity at 1µM NU6300
# Method: as §1, §2, §3
# [6] = molecular target: JNK1 (Homo sapiens, UniProt P45983); assay: Dundee protein kinase screen; settings: JNK1, 1µM; read-out: %Remaining activity at 1µM NU6300
# Method: as §1, §2, §3
# [7] = molecular target: LKB1 (Homo sapiens, UniProt Q15831); assay: Dundee protein kinase screen; settings: LKB1, 1µM; read-out: %Remaining activity at 1µM NU6300
# Method: as §1, §2, §3
# [8] = molecular target: BRK (Homo sapiens, UniProt Q13882); assay: Dundee protein kinase screen; settings: read-out: %Remaining activity at 1µM NU6300
# Method: as §1, §2, §3
# [9] = molecular target: EIF2AK3 (Homo sapiens, UniProt Q9NZJ5); assay: Dundee protein kinase screen; settings: EIF2AK3, 1µM; read-out: %Remaining activity at 1µM NU6300
# Method: as §1, §2, §3
# [10] = molecular target: IRR (Homo sapiens, UniProt P14616); assay: Dundee protein kinase screen; settings: read-out: %Remaining activity at 1µM NU6300
# Method: as §1, §2, §3
# [11] = molecular target: HIPK3 (Homo sapiens, UniProt Q9H422); assay: Dundee protein kinase screen; settings: HIPK3, 1µM; read-out: %Remaining activity at 1µM NU6300
# Method: as §1, §2, §3
# [12] = molecular target: T1, CDK2^K88E/cyclin A (Homo sapiens, UniProt P24941, K88E); assay: Bandshift kinase assay after incubation and dialysis, mutant
# T1 construct: GST (N, cleaved yes); made in house; host or cells: Escherichia coli; phosphorylated in vitro by GST-CAK
# Method: The bandshift experiment was repeated after incubating CDK2^K88E/cyclin A and CDK2^K89V/cyclin A with NU6300, NU6310, or DMSO followed by dialysis to remove unbound inhibitor (Figure S2G).
# Figure S2, Related to Figure 3. Identification of the site of CDK2 modification by NU6300. (A-G) Single site CDK2 mutants CDK2D86A, CDK2K88E, and CDK2K89V identify the site of CDK2 modification by NU6300. These mutations change the CDK2 sequence to that of CDK7 and are known not to disrupt the CDK2 fold. Mass spectra of CDK2 mutants: […]
# (G) Protein kinase activity of authentic CDK2 and single site CDK2 mutants following incubation with NU6300 or NU6310. Samples were taken at the indicated number of minutes after initiation of the reaction. Note that compared to authentic CDK2, the single site Lys88 and Lys89 mutants have a slower rate of reaction (Compare LHS panels). This drop in activity was expected because whereas the wild type protein was produced by co-expression with S. cerevisiae […]
# the mutant proteins were activated by S. cerevisiae CAK1 phosphorylation in vitro– a relatively inefficient process as judged from the results of ESI-MS (Table S1). (H) NU6300 […]
# NU6300 carbon atoms are coloured green. Rb, retinoblastoma protein, Phospho-Rb, […]
# Protein expression and purification
# Site-directed mutagenesis of CDK2 was performed using the QuikChange II kit (Stratagene) following the manufacturer’s instructions and verified by DNA sequencing.
# Wild-type CDK2 phosphorylated at Thr160, untagged human cyclin A2 (residues 174-432), S. cerevisiae GST–CAK, GST–3C-protease and GST–pRb (residues 792–928) were expressed and purified as previously described (Brown et al., 1999a; Brown et al., 1999b; Welburn and Endicott, 2005). […]
# CDK2/cyclin A (200 µM) was incubated overnight with 1 mM inhibitor or DMSO, and then dialysed for 8 h with regular replacement of dialysis buffer into HEPES-buffered saline (50 mM HEPES, pH 7.5, 250 mM NaCl, 0.02% MTG). […] Reactions were stopped by addition of SDS-PAGE loading buffer and analyzed by SDS-PAGE. […]
# EIF2AK3, sequence (Q9NZJ5 30-1116): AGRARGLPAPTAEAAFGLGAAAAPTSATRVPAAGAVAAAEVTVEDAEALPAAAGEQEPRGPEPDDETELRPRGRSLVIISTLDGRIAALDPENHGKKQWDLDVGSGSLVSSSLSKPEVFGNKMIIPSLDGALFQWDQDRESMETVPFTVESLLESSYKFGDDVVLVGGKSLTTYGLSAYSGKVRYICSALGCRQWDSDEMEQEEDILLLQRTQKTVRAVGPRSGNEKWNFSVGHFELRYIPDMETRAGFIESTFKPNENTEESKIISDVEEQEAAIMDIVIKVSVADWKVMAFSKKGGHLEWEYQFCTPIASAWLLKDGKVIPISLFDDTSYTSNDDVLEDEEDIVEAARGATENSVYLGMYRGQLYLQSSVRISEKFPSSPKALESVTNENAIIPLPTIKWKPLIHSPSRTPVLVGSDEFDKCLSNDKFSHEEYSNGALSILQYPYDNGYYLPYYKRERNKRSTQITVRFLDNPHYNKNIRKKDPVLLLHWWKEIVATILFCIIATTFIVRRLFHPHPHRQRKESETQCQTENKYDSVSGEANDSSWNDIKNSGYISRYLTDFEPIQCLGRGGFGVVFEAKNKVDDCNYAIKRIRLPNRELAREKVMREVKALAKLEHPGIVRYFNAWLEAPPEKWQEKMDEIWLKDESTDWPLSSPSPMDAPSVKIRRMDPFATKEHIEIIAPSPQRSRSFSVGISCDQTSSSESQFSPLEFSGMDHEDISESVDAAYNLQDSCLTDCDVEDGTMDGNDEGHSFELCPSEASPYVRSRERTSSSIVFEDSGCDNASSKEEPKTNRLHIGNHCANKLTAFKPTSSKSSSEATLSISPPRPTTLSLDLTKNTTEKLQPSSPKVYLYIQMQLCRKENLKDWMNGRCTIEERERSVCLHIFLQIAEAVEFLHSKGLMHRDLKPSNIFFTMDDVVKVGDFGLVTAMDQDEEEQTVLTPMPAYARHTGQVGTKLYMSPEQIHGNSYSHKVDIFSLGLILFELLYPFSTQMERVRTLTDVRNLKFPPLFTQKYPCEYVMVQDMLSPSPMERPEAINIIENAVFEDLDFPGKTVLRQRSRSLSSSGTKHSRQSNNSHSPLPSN
# IRR, sequence (P14616 27-1297): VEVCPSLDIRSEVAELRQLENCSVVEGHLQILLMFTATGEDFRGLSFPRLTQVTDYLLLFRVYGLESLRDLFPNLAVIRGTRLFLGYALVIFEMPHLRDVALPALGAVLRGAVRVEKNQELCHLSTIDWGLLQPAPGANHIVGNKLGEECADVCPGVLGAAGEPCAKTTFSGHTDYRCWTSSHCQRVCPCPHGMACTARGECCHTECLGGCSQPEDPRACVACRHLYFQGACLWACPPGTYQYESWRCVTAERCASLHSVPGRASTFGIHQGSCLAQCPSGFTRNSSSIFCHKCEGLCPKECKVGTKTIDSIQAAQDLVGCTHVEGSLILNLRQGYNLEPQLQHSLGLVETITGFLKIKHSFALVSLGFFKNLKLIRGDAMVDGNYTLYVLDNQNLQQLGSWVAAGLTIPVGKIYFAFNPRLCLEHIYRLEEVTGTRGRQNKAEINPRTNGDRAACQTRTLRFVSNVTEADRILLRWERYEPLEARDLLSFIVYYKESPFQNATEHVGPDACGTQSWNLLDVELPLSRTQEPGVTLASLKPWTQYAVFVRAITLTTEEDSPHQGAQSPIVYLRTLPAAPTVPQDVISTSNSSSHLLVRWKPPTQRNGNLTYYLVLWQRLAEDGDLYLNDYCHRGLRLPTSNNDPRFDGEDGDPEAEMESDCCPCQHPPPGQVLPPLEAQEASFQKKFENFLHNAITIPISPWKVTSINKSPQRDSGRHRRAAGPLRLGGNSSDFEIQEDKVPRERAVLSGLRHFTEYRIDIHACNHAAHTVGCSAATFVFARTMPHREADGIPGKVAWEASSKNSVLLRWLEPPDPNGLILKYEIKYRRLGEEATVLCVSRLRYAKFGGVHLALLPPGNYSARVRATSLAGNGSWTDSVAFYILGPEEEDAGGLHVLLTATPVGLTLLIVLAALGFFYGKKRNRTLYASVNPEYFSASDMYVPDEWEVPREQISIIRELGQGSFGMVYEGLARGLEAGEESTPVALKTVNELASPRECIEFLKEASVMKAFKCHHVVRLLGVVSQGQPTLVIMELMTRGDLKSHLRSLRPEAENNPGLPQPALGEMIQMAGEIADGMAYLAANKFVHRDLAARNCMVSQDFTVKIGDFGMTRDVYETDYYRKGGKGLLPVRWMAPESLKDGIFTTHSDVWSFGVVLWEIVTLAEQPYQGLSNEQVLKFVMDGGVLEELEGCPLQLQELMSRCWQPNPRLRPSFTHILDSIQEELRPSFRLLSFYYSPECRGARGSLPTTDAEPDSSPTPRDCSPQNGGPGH
# HIPK3, sequence (Q9H422 whole entry): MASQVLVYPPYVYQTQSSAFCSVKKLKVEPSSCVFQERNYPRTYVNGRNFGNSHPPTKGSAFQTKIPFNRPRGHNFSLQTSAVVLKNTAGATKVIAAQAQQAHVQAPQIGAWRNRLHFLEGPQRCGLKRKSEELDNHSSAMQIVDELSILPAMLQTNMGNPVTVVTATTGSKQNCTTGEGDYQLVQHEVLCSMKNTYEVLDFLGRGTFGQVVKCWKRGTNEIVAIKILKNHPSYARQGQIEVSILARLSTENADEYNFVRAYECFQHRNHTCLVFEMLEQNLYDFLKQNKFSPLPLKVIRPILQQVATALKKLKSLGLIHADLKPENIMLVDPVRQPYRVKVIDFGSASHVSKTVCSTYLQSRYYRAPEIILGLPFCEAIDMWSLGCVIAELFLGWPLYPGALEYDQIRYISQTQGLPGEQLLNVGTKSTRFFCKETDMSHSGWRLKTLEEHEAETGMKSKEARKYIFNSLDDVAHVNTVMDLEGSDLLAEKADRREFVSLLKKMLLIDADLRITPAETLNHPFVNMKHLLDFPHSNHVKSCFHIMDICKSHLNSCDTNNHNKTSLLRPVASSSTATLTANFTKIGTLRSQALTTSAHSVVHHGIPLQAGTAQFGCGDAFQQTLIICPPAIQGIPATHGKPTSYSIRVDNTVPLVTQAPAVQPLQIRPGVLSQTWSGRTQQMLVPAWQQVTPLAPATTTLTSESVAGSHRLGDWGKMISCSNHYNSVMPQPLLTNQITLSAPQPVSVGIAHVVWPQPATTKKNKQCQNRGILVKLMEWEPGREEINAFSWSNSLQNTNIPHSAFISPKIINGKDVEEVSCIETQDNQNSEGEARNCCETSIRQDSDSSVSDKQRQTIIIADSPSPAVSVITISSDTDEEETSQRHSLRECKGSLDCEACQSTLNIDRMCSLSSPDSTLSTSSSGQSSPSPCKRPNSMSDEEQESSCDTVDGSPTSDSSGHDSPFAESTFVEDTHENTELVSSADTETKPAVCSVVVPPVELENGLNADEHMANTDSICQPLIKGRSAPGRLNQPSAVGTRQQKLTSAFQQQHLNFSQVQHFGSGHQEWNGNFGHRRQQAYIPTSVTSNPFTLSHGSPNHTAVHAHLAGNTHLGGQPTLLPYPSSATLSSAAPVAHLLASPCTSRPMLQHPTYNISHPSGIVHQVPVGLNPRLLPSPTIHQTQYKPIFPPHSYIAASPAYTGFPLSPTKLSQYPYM
# JNK1, sequence (P45983 whole entry): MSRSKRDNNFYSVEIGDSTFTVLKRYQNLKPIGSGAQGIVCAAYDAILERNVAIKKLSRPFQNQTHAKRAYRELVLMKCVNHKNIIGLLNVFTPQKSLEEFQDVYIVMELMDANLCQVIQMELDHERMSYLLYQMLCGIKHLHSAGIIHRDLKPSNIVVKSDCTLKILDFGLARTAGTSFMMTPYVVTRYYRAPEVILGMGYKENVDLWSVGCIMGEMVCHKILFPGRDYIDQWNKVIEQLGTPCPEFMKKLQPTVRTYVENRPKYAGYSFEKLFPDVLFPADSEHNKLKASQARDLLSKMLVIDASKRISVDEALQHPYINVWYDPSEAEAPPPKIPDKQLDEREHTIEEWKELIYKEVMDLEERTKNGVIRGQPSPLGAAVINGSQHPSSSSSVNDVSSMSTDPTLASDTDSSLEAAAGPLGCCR
# CHK2, sequence (O96017 whole entry): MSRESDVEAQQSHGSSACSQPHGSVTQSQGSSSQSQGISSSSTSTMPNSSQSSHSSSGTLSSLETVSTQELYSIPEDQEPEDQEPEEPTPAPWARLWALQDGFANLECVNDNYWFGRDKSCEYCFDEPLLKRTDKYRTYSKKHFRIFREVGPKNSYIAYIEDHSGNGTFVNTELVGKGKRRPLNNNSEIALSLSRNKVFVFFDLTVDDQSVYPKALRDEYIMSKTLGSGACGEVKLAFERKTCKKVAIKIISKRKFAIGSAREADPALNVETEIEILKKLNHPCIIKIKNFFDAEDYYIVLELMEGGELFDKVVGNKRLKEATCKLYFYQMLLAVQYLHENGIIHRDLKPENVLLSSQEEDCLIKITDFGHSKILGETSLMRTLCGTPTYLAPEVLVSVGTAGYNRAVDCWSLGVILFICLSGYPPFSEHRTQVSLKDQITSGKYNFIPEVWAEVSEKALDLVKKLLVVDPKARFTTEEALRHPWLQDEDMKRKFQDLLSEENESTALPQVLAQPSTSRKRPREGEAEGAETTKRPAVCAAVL
# CSK, sequence (P41240 whole entry): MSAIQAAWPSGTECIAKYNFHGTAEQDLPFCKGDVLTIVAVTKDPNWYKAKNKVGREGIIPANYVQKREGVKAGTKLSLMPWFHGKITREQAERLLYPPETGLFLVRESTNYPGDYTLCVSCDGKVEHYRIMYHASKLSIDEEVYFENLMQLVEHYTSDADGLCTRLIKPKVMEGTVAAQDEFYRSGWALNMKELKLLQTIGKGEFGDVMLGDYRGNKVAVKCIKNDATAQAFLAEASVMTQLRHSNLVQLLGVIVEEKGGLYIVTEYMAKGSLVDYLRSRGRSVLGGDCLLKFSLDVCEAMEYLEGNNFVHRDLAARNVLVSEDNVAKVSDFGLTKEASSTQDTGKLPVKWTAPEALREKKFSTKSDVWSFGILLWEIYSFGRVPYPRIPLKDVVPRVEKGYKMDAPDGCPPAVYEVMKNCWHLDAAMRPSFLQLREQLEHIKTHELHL
Structure (SMILES),remaining activity at 1 µM [1] [%],remaining activity at 1 µM [2] [%],remaining activity at 1 µM [3] [%],remaining activity at 1 µM [4] [%],remaining activity at 1 µM [5] [%],remaining activity at 1 µM [6] [%],remaining activity at 1 µM [7] [%],remaining activity at 1 µM [8] [%],remaining activity at 1 µM [9] [%],remaining activity at 1 µM [10] [%],remaining activity at 1 µM [11] [%],CDK2 activity against Rb after incubation with inhibitor and dialysis [12]
"C=CS(=O)(=O)c1ccc(Nc2nc(OCC3CCCCC3)c3nc[nH]c3n2)cc1 [NU6300, 6-(cyclohexylmethoxy)-N-(4-(vinylsulfonyl)phenyl)-9H-purin-2-amine]",84,39,55,82,83,60,59,59,83,32,96,–
"CCS(=O)(=O)c1ccc(Nc2nc(OCC3CCCCC3)c3nc[nH]c3n2)cc1 [NU6310, 6-(cyclohexylmethoxy)-N-(4-(ethylsulfonyl)phenyl)-9H-purin-2-amine]",–,–,–,–,–,–,–,–,–,–,–,recovered their activity
